Where “and” joins values, the source holds several entries; their conditions need not be identical. Equal entries are not always repeated.
How the values were obtained:
Type in all cases: cell-based
[1] = tested on: K-RasG12V (Rluc8-/GFP2-tagged) in HEK-293 EBNA cells; assay: K-RasG12V nanoclustering-BRET assay; details: for K-RasG12V BRET: compounds 20 μM, FTI-277 1 μM, OphA 2.5 μM, 24 h
[2] = tested on: H-RasG12V (Rluc8-/GFP2-tagged) in HEK-293 EBNA cells; assay: H-RasG12V nanoclustering-BRET assay; details: for H-RasG12V BRET: compounds 20 μM, FTI-277 1 μM, OphA 2.5 μM, 24 h
[3] = tested on: MDA-MB-231 cells; assay: Flow cytometry-based apoptosis assay (Annexin V-FITC / 7-AAD); details: DT-061 10 μM, calmidazolium 5 μM or combination, 24 h
Description: MDA-MB-231 cells were grown for 24 h in complete RPMI medium. The next day the cells were treated with inhibitors for 24 h. […] The cells were labelled using the Annexin V-FITC / 7-AAD apoptosis-detection kit (Beckman-Coulter, cat. no. B60224-AB) according to the manufacturer’s instruction.
Negative values (shaded red) indicate sensitivity of the cell line proliferation to the knockdown of shown genes, whereas positive scores (shaded blue) indicate insensitivity. (B) IC50 values for indicated compounds in Ras pathway mutant cell lines NCI-H358, MDA-MB231 and A375 grown as 3D spheroids under serum free conditions. […] Statistical comparisons were done using the average values across all three cell lines. […] Positive scores indicate synergistic drug interactions whereas negative scores would denote antagonistic drug interactions. A score of zero would indicate no antagonistic or synergistic effect. (D) Flow cytometric analysis of apoptosis in MDA-MB-231 cells. […] Benzethonium chloride and DMSO treated cells were used as positive and negative controls, respectively, for setting the gates. Percentage of total apoptotic cells (early and late stage) from two biological repeats (mean ± SD) is presented. Statistical analysis was performed using Fisher’s exact test comparing the total number of viable and apoptotic cells from two biological repeats. (E) Effect of inhibitors on cellular apoptosis studied using Caspase-3/7Glo assay. […] The caspase-3/7 activity was measured as a luminescence read-out and normalized to the vehicle control, 0.05% (v/v) DMSO. […] GAPDH detection was used as loading control.

[4] = tested on: MDA-MB-231 cells; assay: 2D cell viability assay (alamarBlue), MDA-MB-231; details: MDA-MB-231, 72 h
[5] = tested on: MIA PaCa-2 cells; assay: 2D cell viability assay (alamarBlue), MIA PaCa-2; details: MIA PaCa-2, 72 h
[6] = tested on: HEK-293 EBNA cells; assay: 2D cell viability assay (alamarBlue), HEK-293 EBNA; details: 72 h
[7] = tested on: pERK/ERK in MIA PaCa-2 cells; assay: Western blot of MAPK signaling output (pERK/ERK); details: for normalized pERK/ERK ratio %: MIA PaCa-2 + EGF
[8] = K-RasG12V nanoclustering-BRET dose response (0.1–80 μM; OphA 0.3–20 μM), replicates
[9] = K-RasG12V nanoclustering-BRET, mean
[10] = H-RasG12V nanoclustering-BRET dose response (0.1–80 μM; OphA 0.3–20 μM), replicates
[11] = H-RasG12V nanoclustering-BRET, mean

With `CC(C)=C[C@H]1C[C@H](C)[C@]2(CC[C@]3(C)C[C@H]4[C@H](C(=O)C[C@@]4(C)O)/C(C=O)=C\C[C@H]32)O1` [ophiobolin A] the “DSS3 BRET score” value [1, 8] was 21.8 and 20.9, the “DSS3 BRET score” value [1, 9] was 21.35 and the “K-RasG12V BRET” value ([1]; mean) was 75.39. The “DSS3 BRET score” value [2, 10] was 7.5 and 2.2, the “DSS3 BRET score” value [2, 11] was 4.85 and the “H-RasG12V BRET” value ([2]; mean) was 87.26.
In the case of `CC(C)(C)CC(C)(C)c1ccc(OCCOCC[N+](C)(C)Cc2ccccc2)cc1` [benzethonium Cl, Benzethonium chloride], the “apoptotic cells (%)” value ([3]; early and late stage, replicates N1, N2) was 93.0493% and 96.0998% and the “apoptotic cells (%)” value ([3]; mean) was 94.57%.
With `OCCN1CCN(CCCN2c3ccccc3Sc3ccc(C(F)(F)F)cc32)CC1` [fluphenazine] the “effect on the RasG12V-BRET signals (in words)” value ([1]; K-RasG12V and H-RasG12V biosensors) was “Neither the PP2A activator DT-061, nor Flu had an effect”, the “DSS3 BRET score” value [1, 8] was 0 and the “DSS3 BRET score” value [1, 9] was 0. The “K-RasG12V BRET” value ([1]; A/D plasmid ratio 4/1, individual replicates N1.1-N3.4) was 116.984 and 104.752 and 101.237 and 99.6761 and 117.221 and 114.254 and 111.203 and 106.486 and 102.332 and 104.758 and 105.192 and 105.738, the “K-RasG12V BRET” value ([1]; mean) was 107.49 and the “DSS3 BRET score” value [2, 10] was 0. The “DSS3 BRET score” value [2, 11] was 0, the “H-RasG12V BRET” value ([2]; A/D plasmid ratio 4/1, individual replicates N1.1-N2.4) was 118.298 and 116.824 and 118.266 and 116.921 and 102.254 and 101.937 and 104.771 and 99.5349 and the “H-RasG12V BRET” value ([2]; mean) was 109.85. For the same compound, the “2D monolayer DSS3” value ([4]; Mean) was 28.4, the “2D monolayer DSS3” value ([4]; replicates N1-N3) was 26.6 and 29.8 and 28.8 and the “2D monolayer DSS3” value ([5]; Mean) was 46.37. For the same compound, the “2D monolayer DSS3” value ([5]; replicates N1-N3) was 33.6 and 46.1 and 59.4, the “2D monolayer DSS3” value ([6]; Mean) was 9.5 and the “2D monolayer DSS3” value ([6]; replicates N1-N3) was 9.9 and 9.2 and 9.4.
With `CC(=O)Nc1cccc(-n2c(=O)n(C3CC3)c(=O)c3c(Nc4ccc(I)cc4F)n(C)c(=O)c(C)c32)c1` [trametinib] the “potency relative to Flu-M in MAPK-signaling (pERK) inhibition” value ([7]; MIA PaCa-2) was “at least 20 times”, the “normalized pERK/ERK ratio %” value ([7]; 2 h, trametinib 1 μM, AMG-510 1 μM, calmidazolium 20 μM, DT-061 20 μM, combination each 10 μM, fluphenazine mustard 20 μM, replicates N1-N3) was 32.0097% and 10.8438% and 18.176% and the “normalized pERK/ERK ratio %” value ([7]; same treatments, mean) was 20.34%.

Source: publication PMC9135253, “Potential of phenothiazines to synergistically block calmodulin and reactivate PP2A in cancer cells” (PLoS ONE, 2022)
